Assays:
[1] = biological target: T1, Hco-ACC-2 (homomeric channel) (Haemonchus contortus, UniProt A0A219KWM7); assay: two-electrode voltage clamp in Xenopus oocytes, dose-response; type: cell-based
T1 sequence (A0A219KWM7 18-443): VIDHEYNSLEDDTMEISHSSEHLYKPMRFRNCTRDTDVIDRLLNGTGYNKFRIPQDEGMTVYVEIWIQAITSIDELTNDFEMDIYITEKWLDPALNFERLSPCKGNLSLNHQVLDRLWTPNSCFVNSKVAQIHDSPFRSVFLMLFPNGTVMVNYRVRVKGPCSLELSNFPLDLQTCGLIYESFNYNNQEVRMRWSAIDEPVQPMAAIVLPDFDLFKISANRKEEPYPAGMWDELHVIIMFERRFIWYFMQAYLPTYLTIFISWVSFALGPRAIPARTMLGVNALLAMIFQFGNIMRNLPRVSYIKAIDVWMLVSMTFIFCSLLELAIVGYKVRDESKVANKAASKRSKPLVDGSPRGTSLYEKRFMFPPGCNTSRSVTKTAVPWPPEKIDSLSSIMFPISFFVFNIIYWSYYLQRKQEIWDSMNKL

[2] = biological target: T2, Hco-ACC-1 (in the Hco-ACC-1/2 heteromeric channel) (Haemonchus contortus, UniProt A0A219KVV5+A0A219KWM7); assay: as above; type: cell-based
T2 sequence (A0A219KVV5 23-459): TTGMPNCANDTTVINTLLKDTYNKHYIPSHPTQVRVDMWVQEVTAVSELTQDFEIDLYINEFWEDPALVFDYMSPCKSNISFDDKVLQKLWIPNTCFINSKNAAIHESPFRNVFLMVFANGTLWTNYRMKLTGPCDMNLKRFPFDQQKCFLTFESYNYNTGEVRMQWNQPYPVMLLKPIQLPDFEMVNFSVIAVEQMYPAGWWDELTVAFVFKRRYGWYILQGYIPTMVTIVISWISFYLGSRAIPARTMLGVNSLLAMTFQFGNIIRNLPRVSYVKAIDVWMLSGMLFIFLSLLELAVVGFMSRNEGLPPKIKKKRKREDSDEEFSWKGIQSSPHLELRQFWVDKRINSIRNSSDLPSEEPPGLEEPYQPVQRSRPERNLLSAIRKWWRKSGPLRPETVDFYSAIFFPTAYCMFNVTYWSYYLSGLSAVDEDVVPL
T2 sequence (A0A219KWM7 18-443): T1 sequence (A0A219KWM7 18-443)

`C[N+](C)(C)CCOC(N)=O` [carbachol] showed an EC50 [1] of 46 ± 2 µM and an EC50 [2] of 32.5 ± 3 µM.

Reference: article PMC6287539 (International Journal for Parasitology: Drugs and Drug …, 2018)
